Patent US11534283B2 (priority 2017, dated 2022)
Entries after “also recorded” stand apart in the source; their conditions may differ.

Columns and labels:
[1] = system: adult mouse cortex; conditions: in vivo
[2] = system: cells labeled adjacent the implantation site in the adult mouse cortex; format: cell-based
Experimental: Implantable devices were filled with α-bungarotoxin fused to the dye Alexa Fluor 555 (α-BTX Alexa 555) in PBS at a concentration of 0.3 mg/mL. Animals were treated with the implantable device for 2 hours prior to sacrifice. Tissues were prepared for live cell electrophysiology assays (patch clamp) and fluorescence imaging.
Implantable devices filled with fluorescently labeled α-bungarotoxin (α-BTX) were implanted and the release was studied via imaging and live cell electrophysiology assays.

| Compound | labeling of individual cells (uptake) [1] | localization of fluorescence after release from the implantable device [1] | electrophysiological response of the α-BTX labeled cell to agonist AR-R17779 [2] | electrophysiological activity of agonist AR-R17779 in the control group ([2]; cells labeled with control (Alexa 555) released from the device, patch clamp) |
| --- | --- | --- | --- | --- |
| α-bungarotoxin [α-BTX-Alexa 555] | individual cells were clearly labeled; also recorded: labeling individual cells | local to the implantation site; also recorded: adjacent the implantation site | no activity |  |
| O=C1NCC2(CN3CCC2CC3)O1 (stereo not shown) [AR-R17779] |  |  |  | inhibitory activity |
